For data set [1], the target named is T1, γ-Glutamylcysteine Synthetase (Rattus norvegicus, UniProt P19468).
T1 construct: Rat kidney γ-Glutamylcysteine synthetase was purified from Sprague Dawley (Taconic Farms) rats; from tissue; host or cells: rat kidney (Sprague Dawley, Taconic Farms)
T1 sequence (P19468 1-637): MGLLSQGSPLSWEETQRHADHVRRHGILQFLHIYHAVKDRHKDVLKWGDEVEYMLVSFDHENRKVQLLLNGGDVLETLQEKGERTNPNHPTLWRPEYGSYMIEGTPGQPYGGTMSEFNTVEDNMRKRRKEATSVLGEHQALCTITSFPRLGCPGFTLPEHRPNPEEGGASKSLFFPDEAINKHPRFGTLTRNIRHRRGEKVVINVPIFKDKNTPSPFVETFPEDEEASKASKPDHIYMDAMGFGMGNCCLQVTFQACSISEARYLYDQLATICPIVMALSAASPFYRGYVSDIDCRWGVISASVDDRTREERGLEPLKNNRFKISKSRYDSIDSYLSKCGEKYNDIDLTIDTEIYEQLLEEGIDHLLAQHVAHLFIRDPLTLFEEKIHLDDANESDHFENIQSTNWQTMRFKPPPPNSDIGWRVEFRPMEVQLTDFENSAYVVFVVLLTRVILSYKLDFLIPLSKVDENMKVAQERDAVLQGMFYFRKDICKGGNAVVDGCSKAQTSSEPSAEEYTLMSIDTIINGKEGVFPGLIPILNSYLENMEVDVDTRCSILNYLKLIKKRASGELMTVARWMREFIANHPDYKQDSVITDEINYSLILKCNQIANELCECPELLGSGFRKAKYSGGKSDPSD
T1 sequence (P48508 1-274 partner): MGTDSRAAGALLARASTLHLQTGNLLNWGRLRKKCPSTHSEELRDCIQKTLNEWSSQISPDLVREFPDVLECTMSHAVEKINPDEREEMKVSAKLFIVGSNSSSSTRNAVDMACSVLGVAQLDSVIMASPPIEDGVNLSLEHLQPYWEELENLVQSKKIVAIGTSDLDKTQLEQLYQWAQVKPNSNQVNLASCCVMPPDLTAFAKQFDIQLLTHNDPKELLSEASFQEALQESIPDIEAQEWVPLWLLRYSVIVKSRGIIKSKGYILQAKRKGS
The experiment in a line: Inhibition of γ-glutamylcysteine synthetase (preincubation assay). The class given is biochemical. Conditions: for Ki: 30 min preincubation, 22° C., read-out: Kiapp, Concentration for 50% Inhibition; for inhibition of γ-glutamylcysteine synthetase (in words): ranking compared with BSO.
Description: Rat kidney γ-Glutamylcysteine synthetase was purified from Sprague Dawley (Taconic Farms) rats (Seelig., Methods in Enzymology, 1985, 113:379-390).
The preincubation assay of γ-glutamylcysteine synthetase is given below. γ-Glutamylcysteine synthetase (4.6 units) was added to a mixture (final volume, 50 μl) containing 100 mM Tris/HCl (pH 8.2), 5 mM ATP, 20 mM MgCl2, 0.2 mM EDTA, and the sulfoximine being evaluated. After incubation at 22° C. for 30 minutes, a 45 μl aliquot of the preincubation mixture was added to the assay as follows.
γ-Glutamylcysteine synthetase was assayed as follows (Griffith et al, J. Biological Chem., 1979, 254:1205-1210). The reaction mixture (final volume, 1.0 ml) contained 100 mM Tris/HCl (pH 8.2), 120 mM KCl, 5 mM phosphoenolpyruvate, 20 mM MgCl2, 10 mM sodium L-glutamate, 10 mM L-α-aminobutyric acid, 0.2 mM EDTA, 0.4 mM NADH, pyruvate kinase (10 IU), and lactate dehydrogenase (10 IU). The reaction (37° C.) was initiated by the addition of γ-glutamylcysteine synthetase and the oxidation of NADH, equivalent to ADP formation, was recorded at 340 nm.

The test system of data set [2] is glutathione. In words: Tissue glutathione levels after intraperitoneal administration of sulfoximines. The following applies: for % Decrease in glutathione / Glutathione level: 2 mmol/Kg i.p. The data set is classed as in vivo, mouse.
Description: Male mice (Swiss Webster) were fasted overnight (about 16 hr). L-3-methylbuthionine-SR-sulfoximine (3 mBSO; L-S-3-methylbutyl homocysteine-SR-sulfoximine; L-S-isopentyl homocysteine-SR-sulfoximine), L-buthionine-SR-sulfoximine(BSO; L-S-butyl homocysteine-SR-sulfoximine), L-2-methylbuthiomine-SR-sulfoximine (2 mBSO, L-S-2methylbutyl homocysteine-SR-sulfoximine), or saline (0.9% NaCl) were administered to mice at 2 mmol/Kg intraperitoneally (50 mM, Ph ^~ 7). At the times indicated, plasma and tissues were obtained and assayed for glutathione (GSH+1/2 GSSG) as described by Anderson, Methods in Enzymology, 1985, 113:548-555.
The test system of data set [3] is glutathione. The experiment in a line: Tissue glutathione after oral administration of sulfoximines (Table 5). The data set is classed as in vivo, mouse. The following applies: 2 mmol/kg. The method, then: Male mice (Swiss Webster) were fasted overnight (about 16 hr.) L-buthionine-SR-sulfoximine (BSO, S-n-butyl homocysteine-SR-sulfoximine), L-S-cyclohexylmethyl homocysteine-SR-sulfoximine (CHMSO); L-S-2-ethylbutylhomocysteine-SR-sulfoximine (2 EtBSO, L-S-2-ethylbutyl homocysteine-SR-sulfoximine, or saline (0.9% NaCl) were administered to mice at 2 mmol/Kg by intubation (100 mM; pH about 1 with HCl (200 mM). At the times indicated, plasma and tissues were obtained and assayed for glutathione (GSH+1/2 GSSG) as described by Anderson, Methods in Enzymology, 1985, 113:548-555. (See Table 4 and 5.)

Data set [4] is described as follows: Detection of compound in mouse bile. The data set is classed as in vivo.
In data set [5] the test system is mouse L1210 leukemia cells. The following applies: cited from earlier work.

Take `CCC(CC)CS(=N)(=O)CC[C@H](N)C(=O)O` (stereo partly drawn) [2ETBSO, L-S-2-ethylbutyl homocysteine-SR-sulfoximine]: the Ki in data set [1] is 43.3 µM.
Regarding `CCC(C)CS(=N)(=O)CC[C@H](N)C(=O)O` (stereo partly drawn) [2m BSO, L-S-2methylbutyl homocysteine-SR-sulfoximine], the Ki in data set [1] is 18.4 µM. Besides, the “% Decrease in glutathione” value in data set [2] (brain, 2 hr) is 5%; in data set [2] (brain, 12 hr), 0%; in data set [2] (heart, 2 hr), 14%; in data set [2] (heart, 12 hr) it was 8%; in data set [2] (kidney, 2 hr), 25%; in data set [2] (kidney, 12 hr), 0%. In addition, the “% Decrease in glutathione” value is given as 18% in data set [2] (liver, 2 hr); 0% in data set [2] (liver, 12 hr); 15% in data set [2] (plasma, 2 hr); 8% in data set [2] (plasma, 12 hr). Further, the Glutathione level in data set [2] (brain, 2 hr) is 2.19 µmol/g; in data set [2] (brain, 12 hr), 2.18 µmol/g; in data set [2] (heart, 2 hr), 1.15 µmol/g; in data set [2] (heart, 12 hr), 1.19 µmol/g; in data set [2] (kidney, 2 hr), 2.08 µmol/g; in data set [2] (kidney, 12 hr), 4.10 µmol/g. In addition, the Glutathione level in data set [2] (liver, 2 hr) was 4.49 µmol/g; in data set [2] (liver, 12 hr), 5.05 µmol/g; in data set [2] (plasma, 2 hr) it was 25.2 µM; in data set [2] (plasma, 12 hr), 26.3 µM.
For the molecule `CC(C)CCS(=N)(=O)CC[C@H](N)C(=O)O` (stereo partly drawn) [3m BSO, L-S-3-methylbutyl homocysteine-SR-sulfoximine], in data set [1], the Ki came out at 0.6 µM. In addition, in data set [1], the “inhibition of γ-glutamylcysteine synthetase (in words)” value is listed as “best inhibitors, about equal to BSO”. The “% Decrease in glutathione” value in data set [2] (brain, 2 hr) worked out at 10%; in data set [2] (brain, 12 hr), 10%; in data set [2] (heart, 2 hr), 16%; in data set [2] (heart, 12 hr), 57%; in data set [2] (kidney, 2 hr) it was 81%; in data set [2] (kidney, 12 hr), 53%. Moreover, the “% Decrease in glutathione” value in data set [2] (liver, 2 hr) is given as 77%; in data set [2] (liver, 12 hr), 22%; in data set [2] (plasma, 2 hr), 64%; in data set [2] (plasma, 12 hr) it was 30%. Also, the Glutathione level worked out at 2.09 µmol/g in data set [2] (brain, 2 hr); 1.92 µmol/g in data set [2] (brain, 12 hr); 1.13 µmol/g in data set [2] (heart, 2 hr); 0.55 µmol/g in data set [2] (heart, 12 hr); 0.73 µmol/g in data set [2] (kidney, 2 hr); 1.69 µmol/g in data set [2] (kidney, 12 hr). In addition, the Glutathione level in data set [2] (liver, 2 hr) turned out to be 1.26 µmol/g; in data set [2] (liver, 12 hr), 3.86 µmol/g; in data set [2] (plasma, 2 hr) it was 10.6 µM; in data set [2] (plasma, 12 hr) it was 19.2 µM. Moreover, the “depletion of liver glutathione compared with BSO” value in data set [2] (liver, after 2 hr) is reported as “more effective than BSO”.
In the case of `N=S(=O)(CC[C@H](N)C(=O)O)CC1CCCCC1` (stereo partly drawn) [CHMSO, L-S-cyclohexylmethyl homocysteine-SR-sulfoximine], in data set [1], the Ki was 3.8 µM and the “inhibition of γ-glutamylcysteine synthetase (in words)” value is “best inhibitors, about equal to BSO”. For the same molecule, in data set [3] (12 hours, experimental error about 5%), the “decrease in brain glutathione levels” value is listed as “no decrease”. For the same molecule, the “decrease in glutathione levels (cardio-toxicity)” value in data set [3] (2 hours, mice) was found to be 8%. Also, the “detection in mouse bile” value in data set [4] is on record as “CHMSO was detected”.
As for `N[C@@H](Cc1ccc(N(CCCl)CCCl)cc1)C(=O)O` [phenylalanine mustard], in data set [5], the “dose needed to kill the most resistant cells versus most sensitive cell lines” value was “substantially higher”. Moreover, the “conversion of phenylalanine mustard by resistant cells” value in data set [5] (glutathione-dependent dehydrochlorination) was “converted phenylalanine mustard to a non-toxic hydroxy derivative”.

The values are drawn from US5476966A, “Method for depletion of glutathione” (Cornell Research Foundation, Inc., priority 1995, dated 1995).
